Values joined by “and” are separate entries in the source; they are usually repeats but may differ in a detail not shown here. Equal entries are not always repeated.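 Dose response: 5 concentrations. Exposure: 48 h. Format: 96-well plates. Endpoint: linear interpolation; highest concentration if not reached. GI50 = concentration required for 50% inhibition of growth. TGI is the concentration that stops growth completely.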
Columns and labels:
Assay in all cases: NCI anticancer screen, dose series, 48 h
[1] = system: 786-0 renal
[2] = system: A498 renal
[3] = system: A549 NSCLC
[4] = system: ACHN renal
[5] = system: BT-549 breast
[6] = system: CAKI-1 renal
[7] = system: CCRF-CEM leukemia
[8] = system: COLO 205 colon
[9] = system: DU-145 prostate
[10] = system: EKVX NSCLC
[11] = system: HCC-2998 colon
[12] = system: HCT-116 colon
[13] = system: HCT-15 colon
[14] = system: HL-60(TB) leukemia
[15] = system: HOP-62 NSCLC
[16] = system: HOP-92 NSCLC
[17] = system: HS 578T breast
[18] = system: HT29 colon
[19] = system: IGROV1 ovarian
[20] = system: K-562 leukemia
[21] = system: KM12 colon
[22] = system: LOX IMVI melanoma
[23] = system: M14 melanoma
[24] = system: MALME-3M melanoma
[25] = system: MCF7 breast
[26] = system: MDA-MB-231 breast
[27] = system: MDA-MB-435
[28] = system: MOLT-4 leukemia
[29] = system: NCI-H226 lung
[30] = system: NCI-H23 lung
[31] = system: NCI-H460 lung
[32] = system: NCI-H522 lung
[33] = system: NCI/ADR-RES ovarian
[34] = system: OVCAR-3 ovarian
[35] = system: OVCAR-4 ovarian
[36] = system: OVCAR-5 ovarian
[37] = system: OVCAR-8 ovarian
[38] = system: PC-3 prostate
[39] = system: RPMI-8226 leukemia
[40] = system: RXF 393 renal
[41] = system: SF-268 CNS
[42] = system: SF-295 CNS
[43] = system: SF-539 CNS
[44] = system: SK-MEL-2 melanoma
[45] = system: SK-MEL-28 melanoma
[46] = system: SK-MEL-5 melanoma
[47] = system: SK-OV-3 ovarian
[48] = system: SN12C renal
[49] = system: SNB-19 CNS
[50] = system: SNB-75 CNS
[51] = system: SR leukemia
[52] = system: SW-620 colon
[53] = system: T-47D breast
[54] = system: TK-10 renal
[55] = system: U251 CNS
[56] = system: UACC-257 melanoma
[57] = system: UACC-62 melanoma
[58] = system: UO-31 renal

Q: Which results are given for `O=C(c1ccc(OCCN2CCCCC2)cc1)c1c(-c2ccc(O)cc2)sc2cc(O)ccc12`?
A: GI50 [1]: 4.5 µM and 7.58 µM; TGI [1]: 18.2 µM and 27.6 µM; GI50 [2]: 11.6 µM; TGI [2]: 26.2 µM; GI50 [3]: 13.2 µM and 14.3 µM; TGI [3]: 29.3 µM and 37.9 µM; GI50 [4]: 13.5 µM and 14.7 µM; TGI [4]: 27.2 µM and 28.2 µM; GI50 [5]: 7.8 µM and 12 µM; TGI [5]: 21.5 µM and 27.9 µM; GI50 [6]: 4.65 µM and 14.4 µM; TGI [6]: 20.6 µM and 34.1 µM; GI50 [7]: 5.55 µM and 1.85 µM; TGI [7]: 43.9 µM and > 29.8 µM; GI50 [8]: 12.3 µM and 9.73 µM; TGI [8]: 24.7 µM and 40.6 µM; GI50 [9]: 11.7 µM and 14.9 µM; TGI [9]: 23.9 µM and 30.2 µM; GI50 [10]: 9.34 µM and 12.8 µM; TGI [10]: 25.7 µM and 33.9 µM; GI50 [11]: 6.37 µM and 19.1 µM; TGI [11]: 19.2 µM and 36.8 µM; GI50 [12]: 3.68 µM and 8.5 µM; TGI [12]: 14 µM and 42.7 µM; GI50 [13]: 5.51 µM and 2.67 µM; TGI [13]: 20.8 µM and 13.2 µM; GI50 [14]: 2.02 µM; TGI [14]: 12.7 µM; GI50 [15]: 10.4 µM and 15.4 µM; TGI [15]: 22.2 µM and 43.8 µM; GI50 [16]: 1.43 µM and 5.51 µM; TGI [16]: 6.72 µM and 29 µM; GI50 [17]: 2.99 µM and 9.71 µM; TGI [17]: 22.8 µM and 47.8 µM; GI50 [18]: 14.9 µM and 4.1 µM; TGI [18]: 32.3 µM and 33.4 µM; GI50 [19]: 12.3 µM and 16.5 µM; TGI [19]: 28.9 µM and 38.5 µM; GI50 [20]: 2.5 µM and 7.63 µM; GI50 [21]: 4.49 µM and 9.32 µM; TGI [21]: 15.3 µM and 34.3 µM; GI50 [22]: 1.76 µM and 4.06 µM; TGI [22]: 3.45 µM and 15.1 µM; GI50 [23]: 3.23 µM and 10.3 µM; TGI [23]: 11.1 µM and 32.3 µM; GI50 [24]: 6.05 µM and 13.5 µM; TGI [24]: 23.5 µM and 28.9 µM; GI50 [25]: 1.48 µM; TGI [25]: 15.6 µM and 14 µM; GI50 [26]: 10.4 µM and 9.02 µM; TGI [26]: 23.2 µM and 23.6 µM; GI50 [27]: 1.94 µM and 4.2 µM; TGI [27]: 4.58 µM and 19.7 µM; GI50 [28]: 2.8 µM and 4.86 µM; TGI [28]: 10.8 µM and 23.2 µM; GI50 [29]: 15 µM and 17 µM; TGI [29]: 29.6 µM and 34.6 µM; GI50 [30]: 10.8 µM and 18.5 µM; TGI [30]: 27 µM and 45.2 µM; GI50 [31]: 4.29 µM and 7.96 µM; TGI [31]: 17.1 µM and 25.9 µM; GI50 [32]: 11 µM and 16.5 µM; TGI [32]: 28.6 µM and 37.3 µM; GI50 [33]: 7.72 µM and 17.7 µM; TGI [33]: 23.1 µM and 42.6 µM; GI50 [34]: 10 µM and 14 µM; TGI [34]: 21.7 µM and 31.5 µM; GI50 [35]: 7.8 µM and 12.1 µM; TGI [35]: 20.5 µM and 36.8 µM; GI50 [36]: 16 µM and 20.6 µM; TGI [36]: 30.8 µM and 43.7 µM; GI50 [37]: 13.4 µM and 18.2 µM; TGI [37]: 31.5 µM and 51.3 µM; GI50 [38]: 3.9 µM and 11.7 µM; TGI [38]: 18.9 µM and 35.7 µM; GI50 [39]: 5.54 µM and 2.41 µM; TGI [39]: 77 µM and > 23.1 µM; GI50 [40]: 5.2 µM and 4.32 µM; TGI [40]: 19.1 µM and 15.9 µM; GI50 [41]: 6.67 µM and 12.8 µM; TGI [41]: 20.1 µM and 35.5 µM; GI50 [42]: 2.99 µM and 7.88 µM; TGI [42]: 11 µM and 28.5 µM; GI50 [43]: 12.1 µM and 11 µM; TGI [43]: 27.2 µM and 25.7 µM; GI50 [44]: 15.8 µM and 14.9 µM; TGI [44]: 35.2 µM and 33.8 µM; GI50 [45]: 12.3 µM and 6.65 µM; TGI [45]: 25.1 µM and 23.6 µM; GI50 [46]: 9.51 µM and 5.32 µM; TGI [46]: 21.4 µM and 16.9 µM; GI50 [47]: 11.3 µM and 14.2 µM; TGI [47]: 23.3 µM and 30.4 µM; GI50 [48]: 13.5 µM and 14.5 µM; TGI [48]: 29.7 µM and 29.8 µM; GI50 [49]: 13.7 µM and 15 µM; TGI [49]: 30.5 µM and 34.2 µM; GI50 [50]: 7.55 µM and 8.56 µM; TGI [50]: 20.6 µM and 23.6 µM; GI50 [51]: 3.16 µM and 1.88 µM; GI50 [52]: 7.64 µM and 13.4 µM; TGI [52]: 22 µM and 39.2 µM; GI50 [53]: 2.77 µM and 5.89 µM; TGI [53]: 20 µM and > 50.2 µM; GI50 [54]: 16.7 µM and 16.3 µM; TGI [54]: 31.8 µM and 33.3 µM; GI50 [55]: 5.53 µM and 7.84 µM; TGI [55]: 19.6 µM and 21.1 µM; GI50 [56]: 2.82 µM and 3.52 µM; TGI [56]: 10.8 µM and 10.5 µM; GI50 [57]: 12 µM and 13.7 µM; TGI [57]: 25.8 µM and 27.2 µM; GI50 [58]: 10.1 µM and 9.8 µM; TGI [58]: 22.3 µM and 27.7 µM
